The target of test [1] is T1, 5-hydroxytryptamine receptor 6 (Homo sapiens, UniProt P50406). The experiment in a line: Antagonist activity at human recombinant 5HT6 receptor expressed in […] cells assessed as inhibition of serotonin-induced cAMP accumulation after 2 hrs. The class given is functional, cell-based, HEK293. (cAMP levels reflect the balance of adenylyl cyclase and phosphodiesterase activity.)

Test [2] addresses T1, 5-hydroxytryptamine receptor 6. The experiment in a line: Displacement of [3H]lysergic acid diethylamide from human recombinant 5HT6 receptor expressed in HeLa cells after 120 mins. The class given is cell-based. (In general: Displacement assays read how much labelled ligand stays bound in the presence of the test substance.)
In test [3] the target is T2, 5-hydroxytryptamine receptor 2B (Homo sapiens, UniProt P41595). The experiment in a line: Antagonist activity at human recombinant 5HT2B receptor expressed in HEK293 cells assessed as inhibition of alphamethyl5HT-induced intracellular calcium mobilization by Fluo4-based staining method. The class given is functional, cell-based.
The target of test [4] is T2, 5-hydroxytryptamine receptor 2B. The experiment in a line: Displacement of [3H]lysergic acid diethylamide from human recombinant 5HT2B receptor at 1 uM.
Test [5] has the same target. The experiment in a line: Agonist activity at human recombinant 5HT2B receptor expressed in HEK293 cells assessed as increase in intracellular calcium mobilization by Fluo4-based staining method. It counts as functional, cell-based. For orientation: Calcium assays in cells follow changes in intracellular calcium, usually with a dye or a luminescent sensor.
For test [6], the target named is Voltage-gated inwardly rectifying potassium channel KCNH2 (Homo sapiens, UniProt Q12809). The experiment in a line: Inhibition of human recombinant ERG channel expressed in […] cells after 3 to 8 mins by voltage clamp assay. The class given is cell-based.

The structures appear in SMILES notation. The source made the active and inactive calls. No cut-off for these calls is given here.

As a reminder, the Ki is a dissociation constant, usually derived from enzyme kinetics or from competition with a known ligand. What is called IC50 is the concentration that gives 50% inhibition.

T1 sequence (P50406 whole entry): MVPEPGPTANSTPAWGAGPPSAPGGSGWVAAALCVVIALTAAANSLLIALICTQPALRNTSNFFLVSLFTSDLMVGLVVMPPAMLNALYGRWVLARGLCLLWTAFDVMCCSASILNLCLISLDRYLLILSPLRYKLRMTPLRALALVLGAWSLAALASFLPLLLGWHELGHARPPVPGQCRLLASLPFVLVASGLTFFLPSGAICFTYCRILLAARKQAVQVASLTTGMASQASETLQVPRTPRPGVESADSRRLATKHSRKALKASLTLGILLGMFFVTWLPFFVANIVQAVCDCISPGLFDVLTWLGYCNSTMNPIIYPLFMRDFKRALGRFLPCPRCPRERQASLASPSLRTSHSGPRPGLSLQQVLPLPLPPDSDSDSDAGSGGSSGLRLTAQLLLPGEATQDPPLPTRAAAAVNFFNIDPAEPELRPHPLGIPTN
T2 sequence (P41595 whole entry): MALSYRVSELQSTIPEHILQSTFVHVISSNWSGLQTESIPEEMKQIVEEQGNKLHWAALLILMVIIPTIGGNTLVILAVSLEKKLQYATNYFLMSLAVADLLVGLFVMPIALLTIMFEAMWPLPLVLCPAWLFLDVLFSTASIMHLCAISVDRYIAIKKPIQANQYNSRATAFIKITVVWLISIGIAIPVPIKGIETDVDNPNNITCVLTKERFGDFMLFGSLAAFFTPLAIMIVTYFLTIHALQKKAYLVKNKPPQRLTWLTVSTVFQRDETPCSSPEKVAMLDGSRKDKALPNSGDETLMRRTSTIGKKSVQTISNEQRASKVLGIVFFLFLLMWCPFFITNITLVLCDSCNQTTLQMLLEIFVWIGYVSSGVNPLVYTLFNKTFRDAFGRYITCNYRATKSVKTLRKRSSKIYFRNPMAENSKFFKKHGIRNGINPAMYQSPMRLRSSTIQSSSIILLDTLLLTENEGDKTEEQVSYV
Sequence of Voltage-gated inwardly rectifying potassium channel KCNH2 (Q12809 whole entry): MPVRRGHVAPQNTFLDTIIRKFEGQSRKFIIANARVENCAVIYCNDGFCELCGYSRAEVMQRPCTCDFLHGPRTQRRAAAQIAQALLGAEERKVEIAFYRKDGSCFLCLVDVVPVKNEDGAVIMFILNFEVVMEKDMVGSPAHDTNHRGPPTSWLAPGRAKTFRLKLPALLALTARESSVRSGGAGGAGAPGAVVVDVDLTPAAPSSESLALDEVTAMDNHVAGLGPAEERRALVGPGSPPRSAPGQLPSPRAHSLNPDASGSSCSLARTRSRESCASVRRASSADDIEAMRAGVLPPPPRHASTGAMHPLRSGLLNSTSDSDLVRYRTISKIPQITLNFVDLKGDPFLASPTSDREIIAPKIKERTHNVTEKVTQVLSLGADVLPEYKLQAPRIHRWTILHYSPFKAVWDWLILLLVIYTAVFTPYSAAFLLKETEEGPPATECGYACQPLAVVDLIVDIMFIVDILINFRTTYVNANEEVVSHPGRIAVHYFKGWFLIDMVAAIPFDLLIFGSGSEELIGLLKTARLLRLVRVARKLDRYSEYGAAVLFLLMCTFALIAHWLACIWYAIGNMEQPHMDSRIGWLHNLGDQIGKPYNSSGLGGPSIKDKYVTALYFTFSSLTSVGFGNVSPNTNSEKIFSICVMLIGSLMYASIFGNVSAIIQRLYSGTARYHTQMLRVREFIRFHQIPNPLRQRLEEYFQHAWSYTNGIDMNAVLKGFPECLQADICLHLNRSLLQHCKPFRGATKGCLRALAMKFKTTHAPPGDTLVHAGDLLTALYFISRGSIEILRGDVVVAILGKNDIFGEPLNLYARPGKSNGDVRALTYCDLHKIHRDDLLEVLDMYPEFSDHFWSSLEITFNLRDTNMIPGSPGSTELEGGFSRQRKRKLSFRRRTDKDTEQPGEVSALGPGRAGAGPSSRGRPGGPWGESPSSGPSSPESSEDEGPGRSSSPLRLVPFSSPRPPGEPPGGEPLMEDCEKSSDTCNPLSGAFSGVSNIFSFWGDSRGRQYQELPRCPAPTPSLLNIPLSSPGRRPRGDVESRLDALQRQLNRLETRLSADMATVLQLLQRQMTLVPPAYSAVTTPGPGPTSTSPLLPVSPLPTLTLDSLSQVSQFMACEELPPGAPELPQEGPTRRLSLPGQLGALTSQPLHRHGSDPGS

As to `CSc1nn2cc3c(nc2c1S(=O)(=O)c1ccc(F)cc1)CCN(C)C3`, the Ki in test [1] is 1160 nM. For the compound `CNc1nn2c3c(cnc2c1S(=O)(=O)c1ccccc1)CN(C)CC3`, the Ki in test [2] came out at 0.39 nM; in test [1], 1.8 nM. The inhibition entry in test [3] is “Dose-dependent effect”. Moreover, the IC50 was determined as 6160 nM in test [3] (read-out: IC50) and 54200 nM in test [6]. Moreover, the Activity in test [4] amounted to 50%. Moreover, the outcome in test [5] was inactive. As for `CSc1nn2c3c(cnc2c1S(=O)(=O)c1ccc(F)cc1)CN(C)CC3`, in test [2], the Ki worked out at 35.7 nM. The same measure, in the same setting: with `Cc1nn2c3c(cnc2c1S(=O)(=O)c1ccccc1)CN(C)CC3` the figure was 60.4 nM. As for `CNc1nn2c3c(cnc2c1S(=O)(=O)c1ccccc1)CNCC3`, the Ki in test [1] turned out to be 1.9 nM. Still for that read-out and setting: with `CNc1nn2cc3c(nc2c1S(=O)(=O)c1ccccc1)CCNC3` the figure was 2.1 nM; with `CSc1nn2cc3c(nc2c1S(=O)(=O)c1ccccc1)CCN(C)C3`, 492 nM. With `CSc1nn2c3c(cnc2c1S(=O)(=O)c1ccccc1)CN(C)CC3`, the figures for the Ki in test [2] and in test [1] were 7.7 nM and 14.8 nM, respectively. Take `Cc1nn2cc3c(nc2c1S(=O)(=O)c1ccccc1)CCN(C)C3`: the Ki in test [2] is more than 10000 nM.

The values are drawn from ChEMBL document CHEMBL2169877, “Antagonists of 5-HT₆ receptors. Substituted 3-(phenylsulfonyl)pyrazolo[1,5-a]pyrido[3,4-e]pyrimidines and 3-(phenylsulfonyl)pyrazolo[1,5-a]pyrido[4,3-d]pyrimidines-Synthesis and 'structure-activity' relationship” (Bioorg Med Chem Lett, 2012).
